This is an account of results in US11253554B2, “Bacterial profile to detect fungal taxa abundance in the gut” (Virginia Commonwealth University, priority 2016, dated 2022).

Data set [1] is described as follows: Pre-PPI/post-PPI longitudinal study, clinical course. It counts as in vivo, human. As to conditions: patients with cirrhosis; before 8.1±2.7, p=0.41. The method, then: The impact of PPI on fungal parameters were analyzed from a prior trial in which 40 mg of omeprazole was administered daily for 14 days in compensated outpatients with cirrhosis and healthy controls, (Bajaj J S, et al. Am J Physiol Gastrointest Liver Physiol 2014 307:[…]-[…]).

Data set [2] has as its system fungal taxa (stool mycobiome). Kind of data set: Pre-PPI/post-PPI longitudinal study, stool ITS1 fungal community analysis. As to conditions: after 14 days of 40 mg omeprazole daily. It counts as in vivo, human. The method, then: (§1) The impact of PPI on fungal parameters were analyzed from a prior trial in which 40 mg of omeprazole was administered daily for 14 days in compensated outpatients with cirrhosis and healthy controls, (Bajaj J S, et al. Am J Physiol Gastrointest Liver Physiol 2014 307:G951-G957).
(§2) For all these studies, Shannon diversity indices for both bacterial and fungal taxa as well as LEFSe comparisons (Segata N, et al. Genome Biol 2011 12:R60) at baseline and the end of study were performed and compared.
Similarly, the ITS1 regions of the fungal 18S ribosomal RNA (rRNA) gene were sequenced on a PGM Ion Torrent Next-generation sequencer using Multitag fusion primers (ITS1F: 5′-[…]-3′ (SEQ ID NO:3); ITS2: 5′-[…]-3′ (SEQ ID NO:4)). Amplicons for 96 samples were sequenced together to generate >10,000×400 base reads per sample. The mycobiome is generally less diverse than the microbiome and thus required fewer reads to interrogate this community (Ghannoum M A, et al. PLoS pathogens 2010 6:e1000713). Greater than 1000 reads for bacteria and greater than 100 reads for fungi were used given the relatively lower abundance of fungal taxa as the lowest number chosen to be acceptable. […] A cutoff of 100 reads per sample was used as that was clearly above the negative control and is the break point in FIG. 6. […]

In data set [3] the test system is bacterial taxa (stool microbiota). Kind of data set: Pre-PPI/post-PPI longitudinal study, stool 16S rRNA bacterial community analysis. As to conditions: after 14 days of 40 mg omeprazole daily. In kind it is in vivo, human. As to the method: as §1, §2
(§3) Microbial DNA were isolated from stool samples as previously described (Gillevet P, et al. Chem Biodivers 2010 7:1065-75). […] Amplicons for 96 samples were then sequenced together to generate >20,000×400 base reads per sample.
The Microbiome Analysis Center's Portal was used to organize raw data, track clinical metadata, and track analysis between the groups at baseline and/if they develop infections and are resampled. […] The taxonomic identity of reference sequences were determined using the RDP11 Classifier (Wang Q et al. Appl Environ Microbiol 2007 73:5261-7) and QIIME Pipeline. […] Changes in abundance of individual bacterial and fungal taxa were also analyzed using traditional univariate statistical methods. […]

For data set [4] the following is noted: all subjects, 40 mg daily for 14 days, as reported in prior trial; cited from earlier work.
For data set [5], the system named is bacterial taxa (stool microbiota). Kind of data set: Cross-sectional study of outpatients with cirrhosis, bacterial Shannon diversity. In kind it is in vivo, human. As to conditions: outpatients with cirrhosis on rifaximin without SBP prophylaxis; vs SBPP 1.3±0.5. The method, then:
(§4) Healthy controls that were age-matched were enrolled with two sets of patients with cirrhosis, outpatients and inpatients. Healthy controls were outpatients without any chronic diseases or medications. Patients with cirrhosis were included who were diagnosed using liver biopsy, evidence of frank decompensation or radiological features of cirrhosis who were between 21 and 75 years. Patients who were unable to give consent or provide stool within 48 hours of admission, with alcohol misuse, alcoholic hepatitis, on antifungal medications and with gastrointestinal bleeding episodes within 6 weeks were excluded. Also excluded were those undergoing HCV eradication or those on probiotics within the last 3 months. […]
as §3
The Microbiome Analysis Center's Portal was used to organize raw data, track clinical metadata, and track analysis between the groups at baseline and/if they develop infections and are resampled. […] The taxonomic identity of reference sequences were determined using the RDP11 Classifier (Wang Q et al. Appl Environ Microbiol 2007 73:5261-7) and QIIME Pipeline. […]

For data set [6], the system named is fungal taxa (stool mycobiome). Kind of data set: Cross-sectional study of outpatients with cirrhosis, fungal Shannon diversity. As to conditions: outpatients with cirrhosis on rifaximin without SBP prophylaxis; vs SBPP 0.83±0.60. In kind it is in vivo, human. The method, then: as §4
Similarly, the ITS1 regions of the fungal 18S ribosomal RNA (rRNA) gene were sequenced on a PGM Ion Torrent Next-generation sequencer using Multitag fusion primers (ITS1F: 5′-[…]-3′ (SEQ ID NO:3); ITS2: 5′-[…]-3′ (SEQ ID NO:4)). Amplicons for 96 samples were sequenced together to generate >10,000×400 base reads per sample. The mycobiome is generally less diverse than the microbiome and thus required fewer reads to interrogate this community (Ghannoum M A, et al. PLoS pathogens 2010 6:e1000713). Greater than 1000 reads for bacteria and greater than 100 reads for fungi were used given the relatively lower abundance of fungal taxa as the lowest number chosen to be acceptable. […]

As to `COc1ccc2[nH]c([S+]([O-])Cc3ncc(C)c(OC)c3C)nc2c1` (centres unmarked) [omeprazole], in data set [1], the “MELD score after therapy” value is recorded as 7.9±3.5. Besides, the “fungal diversity (Shannon index) post” value in data set [2] (healthy controls, pre 1.92±0.48, p=0.46) is 1.73±0.61; in data set [2] (patients with cirrhosis, pre 1.64±0.34, p=0.39) it was 1.45±0.38. For the same molecule, the “bacterial diversity (Shannon index) post” value was 1.63±0.22 in data set [3] (healthy controls, pre 1.88±0.16, p=0.004) and 1.54±0.34 in data set [3] (patients with cirrhosis, pre 1.89±0.25, p=0.05). Besides, the tolerability result in data set [4] is on record as “able to tolerate”.

Consider `CO[C@H]1/C=C/O[C@@]2(C)Oc3c(C)c(O)c4c(O)c(c5c(nc6cc(C)ccn65)c4c3C2=O)NC(=O)/C(C)=C\C=C\[C@H](C)[C@H](O)[C@@H](C)[C@@H](O)[C@@H](C)[C@H](OC(C)=O)[C@@H]1C` [rifaximin], for which the “bacterial diversity (Shannon index)” value in data set [5] came out at 1.32±0.51. In addition, the “fungal diversity (Shannon index)” value in data set [6] amounted to 0.77±0.77.
